Measured values from US20100113276A1, “USE OF N2-PHENYLAMIDINES AS HERBICIDES” (BAYER CROPSCIENCE AG, priority 2007, published 2010).

Assay: log P by HPLC on reversed-phase column (C18), EEC Directive 79/831 Annex V.A8
Format: physicochemical
Details: C18, 40° C.; for log p H3PO4: 0.1% aqueous phosphoric acid / acetonitrile; for log p HCO2H: aqueous formic acid / acetonitrile
Method: The log P data were determined in accordance with the EEC Directive 79/831 Annex V.A8 by HPLC (High Performance Liquid Chromatography) on a reversed-phase column (C18) using the following methods: […]
Calibration was carried out with the help of unbranched alkan-2-ones (consisting of 3 to 13 or 16 carbon atoms) with known logP values (determination of the logP values via the retention times by means of linear interpolation between two subsequent alkanones).

Structure (SMILES)	log p H3PO4	log p HCO2H	log p neutral	log p acidic
Cc1cc(N=CN2CCCCC2)c(Cl)cc1Oc1ccc(Cl)c(C(C)(C)C)c1 [compound 906]	3.36	3.25	7.04	
CCN(C)C=Nc1cc(C)c(Oc2nc(C(C)(C)C)ns2)cc1Cl [compound 916]			4.92	2.1
CCN(C)C=Nc1cc(C(F)(F)F)c(Oc2ccc(Cl)c(C(C)(C)C)c2)cc1Cl [compound 944]	3.35	3.39	6.63	
CC(C)(C)c1cc(Oc2cc(Cl)c(N=CN3CCCCC3)cc2C(F)(F)F)ccc1Cl [compound 946]	3.61	3.68	7.1	
CN(C)C=Nc1cc(C(F)(F)F)c(Oc2ccc(Cl)c(C(F)(F)F)c2)cc1Cl [compound 947]	2.61	2.78	5.39	
CCN(C)C=Nc1cc(C(F)(F)F)c(Oc2ccc(Cl)c(C(F)(F)F)c2)cc1Cl [compound 948]	2.87	2.98	5.74	
CC(C)N(C)C=Nc1cc(C(F)(F)F)c(Oc2ccc(Cl)c(C(F)(F)F)c2)cc1Cl [compound 949]	2.82	3.08	6	
FC(F)(F)c1cc(Oc2cc(Cl)c(N=CN3CCCCC3)cc2C(F)(F)F)ccc1Cl [compound 951]	3.03	3.42	6.2	

Results, then the molecule that gave them:

log p H3PO4	log p HCO2H	log p neutral	log p acidic	Structure (SMILES)
2.98	2.8	6.54		CCN(C)C=Nc1cc(C)c(Oc2ccc(Cl)c(C(C)(C)C)c2)cc1Cl [compound 903]
1.35	3.01	6.87		Cc1cc(N=CN(C)C(C)C)c(Cl)cc1Oc1ccc(Cl)c(C(C)(C)C)c1 [compound 904]
		5.31	2.3	CCN(C)C=Nc1cc(C)c(-c2ccc(Cl)c(C(F)(F)F)c2)cc1Cl [compound 928]
		6.15	2.74	CCN(C)C=Nc1cc(C(F)(F)F)c(-c2ccc(C(C)(C)C)cc2)cc1Cl [compound 962]
	3.11	7.36		COc1cc(Oc2ccc(Cl)c(C(C)(C)C)c2)c(OC)cc1N=CN(C)C [compound 981]
		4.14	2.23	CCN(C)C=Nc1cc(OC)c(Oc2ccc(Cl)c(C(F)(F)F)c2)cc1OC [compound 986]
		4.5	2.35	COc1cc(Oc2ccc(Cl)c(C(F)(F)F)c2)c(OC)cc1N=CN(C)C(C)C [compound 987]
			1.76	COc1cc(-c2ccc(C)cc2)c(OC)cc1N=CN(C)C [compound 998]
			1.89	CCN(C)C=Nc1cc(OC)c(-c2ccc(C)cc2)cc1OC [compound 999]
